Assay results from patent US11840525B2, “Use of AURKB small-molecule inhibitors for treatment of non-small cell lung cancer” (Nanjing China-Australia Institute of Translational Medicine …, priority 2016, dated 2023).
Where two headings read alike, the source gives them in different places.

What was measured:
[1] = test system: A549 cells; assay: CCK-8 growth inhibition of A549 lung cancer cells; format: cell-based; details: Homo sapiens
Protocol: (§1) Lung cancer cells A549 were separated into a 96-well plate and respectively added with 10 mM TZ47 stock solution to final concentrations of 0 μM, 0.1 μM, 0.5 μM, 1 μM, 2 μM, 4 μM and 8 μM in respective wells. Then the 96-well plate was incubated at 37° C. for 48 h and the growth of the cells was analyzed by a CCK-8 method. […] It can be seen from Table 1 that TZ47 also plays a desirable role in inhibiting the growth of other cancer cells including colorectal cancer, leukemia, liver cancer, melanoma, breast cancer and ovarian cancer.

[2] = test system: HL-60; assay: Growth inhibition of tumor cells, HL-60; format: cell-based; details: Homo sapiens, read-out: IC50 against tumor cells, HL-60
Protocol: as §1

[3] = test system: HepG-2; assay: Growth inhibition of tumor cells, HepG-2; format: cell-based; details: Homo sapiens, HepG2; read-out: IC50 against tumor cells, HepG-2
Protocol: as §1

[4] = test system: A549 cells; assay: Colony formation assay; format: cell-based; details: 2 μM, 2 weeks
[5] = test system: A549 xenograft; assay: A549 heterotopic xenograft in nude mice; format: in vivo; details: 150 mg/kg
Protocol: The lung-cancer mouse model was constructed to test the effect of TZ47 on tumor proliferation in vivo. First, A549 cells were inoculated into the mice at the left axilla. When the tumor was proliferated to 100 mm^3, the mice were treated with TZ47 (150 mg/kg), and the weight, tumor volume and diet were observed and recorded. In the sixth week, the mice were anesthetized, and the tumors were photographed and recorded. […] The mice were quickly sacrificed through the dislocation of cervical vertebra, and the solid tumor was collected and weighed.
Next, part of the solid tumor was extracted for the immunohistochemistry assay. […] The solid tumor protein was lysed and analyzed by western blot assay.

[6] = test system: CaoV-3; assay: Growth inhibition of tumor cells, CaoV-3; format: cell-based; details: Homo sapiens, read-out: IC50 against tumor cells, CaoV-3
Protocol: as §1

[7] = test system: MCF-7; assay: Growth inhibition of tumor cells, MCF-7; format: cell-based; details: Homo sapiens, MCF7; read-out: IC50 against tumor cells, MCF-7
Protocol: as §1

[8] = test system: H3S10 phosphorylation in A549 cells; assay: Western blot of histone modifications in A549 cells; format: cell-based
[9] = test system: A549 cells; assay: Transwell cell migration test; format: cell-based; details: 2 μM, 12 h
Protocol: In addition, Transwell test was also conducted to determine the effect of the expression level of AURKB on the cell migration ability. Similarly, TZ47 (2 μM) was used to treat cells in the Transwell test. […] At the same time, compared to the control scr cells, AURKB-kd cells can partially antagonize the inhibitory effect of TZ47 on cell migration (FIGS. 10A-10B). […] The specific steps were described as follows. • a. Cell migration test • 1) The cells to be tested in the logarithmic growth phase was digested with trypsin and centrifuged to collect the cells. Then the cells were washed once with PBS and resuspended with serum-free DMEM for counting. • 2) 500 μl, of DMEM medium containing 10% FBS was added to a 24-well plate and a Transwell chamber was carefully placed into the plate to prevent air bubbles. Then 100 μL of cell suspension (about 50,000 cells) was added to the Transwell chamber, and a TZ47 solution (final concentration: 2 μM) was simultaneously added to the TZ47 treatment group. The 24-well plate was incubated at 37° C. and 5% CO2 in a cell incubator for 12 h. • 3) The Transwell chamber was removed from the plate and washed in PBS to remove the medium. […]

[10] = test system: A549 cells; assay: Apoptosis of A549 cells by flow cytometry; format: cell-based; details: flow cytometer
Text: To elucidate how TZ47 induced the cell death, a flow cytometer was applied to measure and analyze the apoptosis of cells in solvent (DMSO) control group and the treatment groups with different gradients of TZ47 in the use of a cell apoptosis detection kit.

[11] = test system: SW480; assay: Growth inhibition of tumor cells, SW480; format: cell-based; details: Homo sapiens, read-out: IC50 against tumor cells, SW480
Protocol: as §1

IC50 ([1]; CCK-8, 48 h, read-out: IC50 of TZ47 against A549): 0.73 µM | IC50 ([1]; read-out: IC50 against tumor cells, A549): 0.73 ± 0.24 µM | IC50 [2]: 0.0916 ± 0.0022 µM | IC50 [3]: 2.18 ± 0.12 µM | behavior, diet and weight of the mice versus control group [5]: no significant difference | IC50 [6]: 4.47 ± 0.12 µM | IC50 [7]: 1.87 ± 0.15 µM | IC50 [11]: 9.43 ± 0.34 µM
Structure (SMILES): c1ccc2c(Cc3[nH]c4ccccc4c3Cc3c[nH]c4ccccc34)c[nH]c2c1 [TZ47]
colony formation in control cells [4]: significantly inhibited | HE staining of solid tumor ([5]; also verified with Ki-67): large quantity of necrotic tissues | tumor volume versus solvent control group ([5]; sixth week): significantly smaller | solid tumor weight (tumor growth in vivo) ([5]; tumor collected and weighed): significant activity in inhibiting the tumor growth | expression level of AURKB protein in solid tumor ([5]; western blot of tumor): did not affect | H3S10 ph modification level in solid tumor ([5]; western blot of tumor, P<0.05): significantly reduced | degradation of AURKB protein in A549 cells ([8]; 48 h): did not mediate the degradation | labeling of other histone residues close to H3S10 ([8]; A549 cells): failed to affect | phosphorylation level of H3S10 in A549 cells ([8]; different concentrations, 48 h): significantly reduced | migration ability of cells [9]: significantly showed inhibitory effect | apoptosis, 1 μM and 2 μM treatment groups ([10]; 1 μM and 2 μM): no significant difference | proportion of early apoptotic cells ([10]; 4 μM): significantly increased
